These results are taken from patent US6306860A, “2,5-pyridinedicarboxylic acid derivatives” (Dong Wha Pharm. Inc. Co., Ltd., priority 1998, dated 2001).

In one assay the target is T1, HBV polymerase (Hepatitis B virus genotype D subtype ayw, UniProt P03156).
T1 construct: made in house; host or cells: E. coli
Put plainly: Inhibitory activities against HBV polymerase (reverse transcriptase activity) in vitro. It is filed as biochemical. The settings on record: read-out: Inhibitory activity of HBV-RT (%); for inhibition at 0.01 µg/mL: 0.01 μg/ml; for inhibition at 0.1 µg/mL: 0.1 μg/ml; for inhibition at 1 µg/mL: 1 μg/ml. The text has this:
Experiment 1:Inhibitory Activities Against HBV Polymerase in vitro
Recently, the inventors of the present invention have produced a recombinant HBV polymerase that is expressed from E.coli transformant, measured its enzyme activity and filed patent applications threrof [Korean Pat. Appl. Nos. 94-3918 and 96-33998].
The inventors have also established a method of measuring the reverse transcriptase activity of HBV polymerase in vitro. The fundamental principle is the same as the ELISA method, and after reacting the substrate with biotin- and DIG-modified nucleotide, a method of recognizing the polymerized substrate as anti-DIG antibody with peroxidase was used.
20 μl of HBV polymerase, 20 μl of reaction mixture and 20 μl of test compound was mixed and reacted at 14° C.~30° C. for 18~24 hours. Then, the inhibitory effect of the test compound against reverse transcriptase activity in the HBV polymerase was examined, compared with the results of control tests without the test compound.

The target of assay [1] is T2, HIV reverse transcriptase (Human immunodeficiency virus type 1 group M subtype B, UniProt P04585).
T2 construct: purchased Boehringer Mannheim
Put plainly: In vitro inhibition test against HIV reverse transcriptase. It is filed as biochemical. The settings on record: read-out: Inhibitory activity of HIV-RT (%); for inhibition at 0.1 µg/mL: 0.1 μg/ml; for inhibition at 1 µg/mL: 1 μg/ml. Here is the method: Experiment 2: The in vitro Inhibition Test Against HIV Reverse Transcriptase
The inhibitory activity in vitro was measured using a non-radioactive reverse transcriptase assay Kit (Boehringer Mannheim).
At first, 20 μl(40 ng) of HIV-RT was added to the wells, coated with streptavidin and with the addition of 20 μl reaction mixture containing template/primer hybrid poly(A)/oligo(dT)15 and DIG-(digoxigenin)-dUTP, biotin-dUTP and TTP, 20 μl of test compound was added and reacted at 37° C. for 1 hour. The control without test compound was used for the comparison of related activity. Since DNA containing nucleotide labeled with digoxigenin and biotine was prepared by the action of HIV-RT, it was combined with streptavidin coated at the bottom of the wells. After the reaction was completed, remaining impurities were removed by washing each well with 250 μl buffer solution (pH 7.0) for 30 seconds 5 times and with the addition of 200 μl anti-DIG-POD antibody, the mixture was reacted at 37° C. for 1 hour. For the removal of remaining impurities again, the reacting solution was washed with a buffer solution and with the addition of 200 μl ABTS™ each, a substrate of POD(peroxidase), the solution was reacted at room temperature for 30 minutes. The absorbance was read by ELISA reader at 405 nm for the assay of reverse transcriptase activity and its inhibition activity.

T1 sequence (P03156 whole entry): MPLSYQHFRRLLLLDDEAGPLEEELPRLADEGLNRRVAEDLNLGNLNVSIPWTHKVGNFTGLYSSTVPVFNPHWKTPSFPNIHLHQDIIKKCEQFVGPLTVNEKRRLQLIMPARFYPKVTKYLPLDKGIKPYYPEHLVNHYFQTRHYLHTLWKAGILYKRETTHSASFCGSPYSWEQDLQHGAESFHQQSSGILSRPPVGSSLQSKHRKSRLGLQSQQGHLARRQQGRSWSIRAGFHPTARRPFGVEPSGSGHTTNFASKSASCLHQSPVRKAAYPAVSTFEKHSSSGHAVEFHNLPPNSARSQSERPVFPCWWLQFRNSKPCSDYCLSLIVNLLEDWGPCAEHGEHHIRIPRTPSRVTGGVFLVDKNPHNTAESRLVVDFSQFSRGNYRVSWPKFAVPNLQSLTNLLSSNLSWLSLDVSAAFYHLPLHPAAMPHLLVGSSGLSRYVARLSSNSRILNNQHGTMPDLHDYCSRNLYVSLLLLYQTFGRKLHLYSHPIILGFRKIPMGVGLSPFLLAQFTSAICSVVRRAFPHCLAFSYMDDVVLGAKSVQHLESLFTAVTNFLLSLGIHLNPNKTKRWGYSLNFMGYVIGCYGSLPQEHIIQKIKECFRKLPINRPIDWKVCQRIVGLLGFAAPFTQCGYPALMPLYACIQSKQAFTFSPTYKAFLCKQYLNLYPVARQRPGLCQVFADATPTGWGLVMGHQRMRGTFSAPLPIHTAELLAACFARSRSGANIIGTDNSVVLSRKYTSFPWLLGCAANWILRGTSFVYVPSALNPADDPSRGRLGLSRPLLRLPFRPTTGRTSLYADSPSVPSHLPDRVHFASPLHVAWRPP

Regarding `CC(C)Nc1cccnc1N1CCN(C(=O)c2ccc(C(=O)NCCO)cn2)CC1` [Exam. 1, 5-[N-(2-hydroxyethyl)carbamoyl]-2-[1-[3-(isopropylamino)-2-pyridyl]piperazin-4-yl-carbonyl]pyridine], at HBV polymerase, the inhibition at 0.01 µg/mL worked out at 30%, the inhibition at 0.1 µg/mL amounted to 51% and the inhibition at 1 µg/mL came out at 54%.

With `CC(C)Nc1cccnc1N1CCN(C(=O)c2ccc(C(=O)NCCCO)cn2)CC1` [Exam. 2, 5-[N-(3-Hydroxypropyl)carbamoyl]-2-[1-[3-(isopropylamino)-2-pyridyl]piperazine-4-yl-carbonyl]pyridine], at HBV polymerase, the inhibition at 0.01 µg/mL amounted to 49%, the inhibition at 0.1 µg/mL came out at 60% and the inhibition at 1 µg/mL came to 71%.

Consider `CC(C)Nc1cccnc1N1CCN(C(=O)c2ccc(C(=O)N[C@H](C)CO)cn2)CC1` [Exam. 3, 5-[N-[(1R)-2-hydroxy-1-methylethyl]carbamoyl]-2-[1-[3-(isopropylamino)-2-pyridyl]piperazin-4-yl-carbonyl]pyridine], for which, on HBV polymerase, the inhibition at 0.01 µg/mL turned out to be 41%, the inhibition at 0.1 µg/mL turned out to be 57% and the inhibition at 1 µg/mL was 74%.

`CC(C)Nc1cccnc1N1CCN(C(=O)c2ccc(C(=O)N[C@@H](C)CO)cn2)CC1` [Exam. 4, 5-[N-[(1S)-2-hydroxy-1-methylethyl]carbamoyl]-2-[1-[3-(isopropylamino)-2-pyridyl]piperazin-4-yl-carbonyl]pyridine]: at HBV polymerase, the inhibition at 0.01 µg/mL was 30%, the inhibition at 0.1 µg/mL was 39% and the inhibition at 1 µg/mL came out at 56%.

Regarding `CC(C)Nc1cccnc1N1CCN(C(=O)c2ccc(C(=O)NC(C)(C)CO)cn2)CC1` [Exam. 6, 5-[N-(1,1-dimethyl-2-hydroxyethyl)carbamoyl]-2-[1-[3-(isopropylamino)-2-pyridyl]piperazin-4-yl-carbonyl]pyridine], at HBV polymerase, the inhibition at 0.01 µg/mL turned out to be 62%, the inhibition at 0.1 µg/mL stood at 65% and the inhibition at 1 µg/mL amounted to 80%. In assay [1], the inhibition at 0.1 µg/mL was 48% and the inhibition at 1 µg/mL worked out at 70%.

Consider `CC[C@H](CO)NC(=O)c1ccc(C(=O)N2CCN(c3ncccc3NC(C)C)CC2)nc1` [Exam. 7, 5-[N-[(1R)-1-ethyl-2-hydroxyethyl]carbamoyl]-2-[1-[3-(isopropylamino)-2-pyridyl]piperazin-4-yl-carbonyl]pyridine], for which, at HBV polymerase, the inhibition at 0.01 µg/mL came to 53%, the inhibition at 0.1 µg/mL was 64% and the inhibition at 1 µg/mL was 70%.

With `CC(C)Nc1cccnc1N1CCN(C(=O)c2ccc(C(=O)NC(CO)CO)cn2)CC1` [Exam. 13, 5-[N-[Bis(hydroxymethyl)methyl]carbamoyl]-2-[1-[3-(isopropylamino)-2-pyridyl]piperazin-4-yl-carbonyl]pyridine], on HBV polymerase, the inhibition at 0.01 µg/mL is 51%, the inhibition at 0.1 µg/mL was 56% and the inhibition at 1 µg/mL stood at 72%. Besides, in assay [1], the inhibition at 0.1 µg/mL turned out to be 61% and the inhibition at 1 µg/mL was determined as 80%.

In the case of `CCN(CCO)C(=O)c1ccc(C(=O)N2CCN(c3ncccc3NC(C)C)CC2)nc1` [Exam. 14, 5-[N-ethyl-N-(2-hydroxyethyl)carbamoyl]-2-[1-[3-(isopropylamino)-2-pyridyl]piperazin-4-yl-carbonyl]pyridine], at HBV polymerase, the inhibition at 0.1 µg/mL was determined as 10% and the inhibition at 1 µg/mL was 35%.

For the compound `CC(C)Nc1cccnc1N1CCN(C(=O)c2ccc(C(=O)N(CCO)CCO)cn2)CC1` [Exam. 16, 5-[N,N-bis(2-hydroxyethyl)carbamoyl]-2-[1-[3-(isopropylamino)-2-pyridyl]piperazin-4-yl-carbonyl]pyridine], on HBV polymerase, the inhibition at 0.01 µg/mL worked out at 51%, the inhibition at 0.1 µg/mL stood at 60% and the inhibition at 1 µg/mL worked out at 70%. In assay [1], the inhibition at 0.1 µg/mL came out at 47% and the inhibition at 1 µg/mL was 68%.

On to `CC(C)Nc1cccnc1N1CCN(C(=O)c2ccc(C(=O)N(CCO)c3ccccc3)cn2)CC1` [Exam. 17], for which, on HBV polymerase, the inhibition at 0.01 µg/mL was determined as 42%, the inhibition at 0.1 µg/mL turned out to be 53% and the inhibition at 1 µg/mL was 66%.

As for `CCNc1cccnc1N1CCN(C(=O)c2ccc(C(=O)NCCO)cn2)CC1` [Exam. 18, 2-[1-[3-(ethylamino)-2-pyridyl]piperazin-4-yl-carbonyl]-5-[N-(2-hydroxyethyl)carbamoyl]pyridine], on HBV polymerase, the inhibition at 0.01 µg/mL amounted to 52%, the inhibition at 0.1 µg/mL amounted to 69% and the inhibition at 1 µg/mL is 84%.

As to `CCNc1cccnc1N1CCN(C(=O)c2ccc(C(=O)NC(C)(C)CO)cn2)CC1` [Exam. 19, 5-[N-(1,1-dimethyl-2-hydroxyethyl)carbamoyl]-2-[1-[3-(ethylamino)-2-pyridyl]piperazin-4-yl-carbonyl]pyridine], on HBV polymerase, the inhibition at 0.01 µg/mL came to 32%, the inhibition at 0.1 µg/mL was determined as 56% and the inhibition at 1 µg/mL is 72%.

With `Nc1cccnc1N1CCN(C(=O)c2ccc(C(=O)NCCO)cn2)CC1` [Exam. 20, 2-[1-(3-Amino-2-pyridyl)piperazine4-yl-carbonyl]-5-[N-(2-hydroxyethyl)carbamoyl]pyridine], on HBV polymerase, the inhibition at 0.01 µg/mL was 54%, the inhibition at 0.1 µg/mL was determined as 67% and the inhibition at 1 µg/mL is 74%.

On to `CC(C)(CO)NC(=O)c1ccc(C(=O)N2CCN(c3ncccc3N)CC2)nc1` [Exam. 21, 2-[1-(3-amino-2-pyridyl)piperazin-4-yl-carbonyl]-5-[N-(1,1-dimethyl-2-hydroxyethyl)carbamoyl]pyridine], for which, on HBV polymerase, the inhibition at 0.01 µg/mL turned out to be 38%, the inhibition at 0.1 µg/mL stood at 62% and the inhibition at 1 µg/mL worked out at 70%.

Regarding `CC(C)CNc1cccnc1N1CCN(C(=O)c2ccc(C(=O)NCCO)cn2)CC1` [Exam. 22], at HBV polymerase, the inhibition at 0.01 µg/mL turned out to be 54%, the inhibition at 0.1 µg/mL was 60% and the inhibition at 1 µg/mL came to 86%. Moreover, in assay [1], the inhibition at 0.1 µg/mL amounted to 50% and the inhibition at 1 µg/mL came out at 60%.

`CC(C)CNc1cccnc1N1CCN(C(=O)c2ccc(C(=O)NC(C)(C)CO)cn2)CC1` [Exam. 23, 5-[N-(1,1-dimethyl-2-hydroxyethyl)carbamoyl]-2-[1-[3-(isobutylamino)-2-pyridyl]piperazin-4-yl-carbonyl]pyridine]: on HBV polymerase, the inhibition at 0.01 µg/mL turned out to be 63%, the inhibition at 0.1 µg/mL turned out to be 71% and the inhibition at 1 µg/mL worked out at 90%. In assay [1], the inhibition at 0.1 µg/mL amounted to 46% and the inhibition at 1 µg/mL was 62%.

Regarding `CC(C)NC(=O)c1ccc(C(=O)N2CCN(c3ncccc3NC(C)C)CC2)nc1` [Exam. 24, 2-[1-[3-(isopropylamino)-2-pyridyl]piperazin-4-yl-carbonyl]-5-(N-isopropylcarbamoyl)pyridine], at HBV polymerase, the inhibition at 0.01 µg/mL came out at 23%, the inhibition at 0.1 µg/mL was 51% and the inhibition at 1 µg/mL was 65%. In assay [1], the inhibition at 0.1 µg/mL came out at 30% and the inhibition at 1 µg/mL turned out to be 66%.

Take `CCNc1cccnc1N1CCN(C(=O)c2ccc(C(=O)NC(C)C)cn2)CC1` [Exam. 25, 2-[1-[3-(ethylamino)-2-pyridyl]piperazin-4-yl-carbonyl]-5-(N-isopropylcarbamoyl)pyridine]: on HBV polymerase, the inhibition at 0.01 µg/mL was found to be 54%, the inhibition at 0.1 µg/mL was 67% and the inhibition at 1 µg/mL stood at 85%. In assay [1], the inhibition at 0.1 µg/mL amounted to 52% and the inhibition at 1 µg/mL is 75%.

Turning to `CC(C)CNc1cccnc1N1CCN(C(=O)c2ccc(C(=O)NC(C)C)cn2)CC1` [Exam. 26, 2-[1-[3-(isobutylamino)-2-pyridyl]piperazin-4-yl-carbonyl]-5-(N-isopropylcarbamoyl)pyridine], at HBV polymerase, the inhibition at 0.01 µg/mL was determined as 58%, the inhibition at 0.1 µg/mL is 66% and the inhibition at 1 µg/mL was 90%. In assay [1], the inhibition at 0.1 µg/mL was determined as 45% and the inhibition at 1 µg/mL came out at 60%.

Turning to `CC(C)NC(=O)c1ccc(C(=O)N2CCN(c3ncccc3N)CC2)nc1` [Exam. 27, 2-[1-(3-amino-2-pyridyl)piperazin-4-yl-carbonyl]-5-(N-isopropylcarbamoyl)pyridine], on HBV polymerase, the inhibition at 0.01 µg/mL was 43%, the inhibition at 0.1 µg/mL turned out to be 62% and the inhibition at 1 µg/mL was 79%. In addition, in assay [1], the inhibition at 0.1 µg/mL was 54% and the inhibition at 1 µg/mL was 70%.

As to `CC(C)CNc1cccnc1N1CCN(C(=O)c2ccc(C(=O)Nc3ncccc3O)cn2)CC1` [Exam. 86], at HBV polymerase, the inhibition at 0.01 µg/mL was 13%, the inhibition at 0.1 µg/mL came out at 46% and the inhibition at 1 µg/mL turned out to be 71%.
